Source: the supplement of paper PMC10307832

Key:
Test in all cases: relative viability (nuclei count vs DMSO), 5 days (fraction); higher = more cells survive
[1] = compound: CN(C)CC1=CC(=CC=C1)N=C(C2=CC=CC=C2)C3=C(NC4=C3C=CC(=C4)C(=O)N(C)C)O + CC(=O)c1c(C)c2cnc(Nc3ccc(N4CCNCC4)cn3)nc2n(C2CCCC2)c1=O [Palbociclib] (partner 0.5 µM)
Summary of the method: (§1)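 A single step with final 0.05% Triton X-100, 1% formaldehyde and 1 ug/ml Hoechst fixed the cells and stained nuclei 5 days after treatment. Lung cancer cell lines in 1536-well plates had been treated by pin tool the day after seeding with one drug alone or a fixed anchor-drug dose plus five library-drug doses (not always all listed) in √10 steps, and nuclei were counted on 4× images. Relative viability is the ratio of nuclei in treated wells to nuclei in vehicle wells, taken as the median of duplicate plates.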

[2] = compound: CN(C)CC1=CC(=CC=C1)N=C(C2=CC=CC=C2)C3=C(NC4=C3C=CC(=C4)C(=O)N(C)C)O + CS(=O)(=O)N1CCN(Cc2cc3nc(-c4cccc5[nH]ncc45)nc(N4CCOCC4)c3s2)CC1 [Pictilisib] (partner 1 µM)
Summary of the method: as §1

[3] = compound: CN(C)CC1=CC(=CC=C1)N=C(C2=CC=CC=C2)C3=C(NC4=C3C=CC(=C4)C(=O)N(C)C)O + N=C(N)NC(=N)NCCc1ccccc1 [Phenformin] (partner 250 µM)
Summary of the method: as §1

[4] = compound: CN(C)CC1=CC(=CC=C1)N=C(C2=CC=CC=C2)C3=C(NC4=C3C=CC(=C4)C(=O)N(C)C)O + Nc1ncn([C@H]2C[C@H](O)[C@@H](CO)O2)c(=O)n1 [Decitabine] (partner 2 µM)
Summary of the method: as §1

Cell Line	relative viability ([1]; first compound 0.08 µM)	relative viability ([1]; first compound 0.253 µM)	relative viability ([1]; first compound 0.8 µM)	relative viability ([1]; first compound 2.53 µM)	relative viability ([1]; first compound 8 µM)	relative viability ([2]; first compound 0.08 µM)	relative viability ([2]; first compound 0.253 µM)	relative viability ([2]; first compound 0.8 µM)	relative viability ([2]; first compound 2.53 µM)	relative viability ([2]; first compound 8 µM)	relative viability ([3]; first compound 0.08 µM)	relative viability ([3]; first compound 0.253 µM)	relative viability ([3]; first compound 0.8 µM)	relative viability ([3]; first compound 2.53 µM)	relative viability ([3]; first compound 8 µM)	relative viability ([4]; first compound 0.08 µM)	relative viability ([4]; first compound 0.253 µM)	relative viability ([4]; first compound 0.8 µM)	relative viability ([4]; first compound 2.53 µM)	relative viability ([4]; first compound 8 µM)
NCI-H2347	0.428	0.389	0.445	0.456	0.518	0.868	0.637	0.697	0.663	0.6	0.436	0.46	0.368	0.454	0.467	0.631	0.634	0.583	0.635	0.679
PC-14	0.474	0.412	0.635	0.614	0.537	0.698	0.608	0.63	0.591	0.662	0.572	0.545	0.617	0.602	0.734	0.254	0.214	0.213	0.236	0.25
NCI-H727		0.617	0.593	0.391	0.74	0.515	0.32	0.397	0.47	0.572	0.595	0.474	0.53	0.578	0.573		0.817	0.841	1.09	0.864
NCI-H647	0.431	0.433	0.471	0.45	0.382	0.476	0.475	0.409	0.364	0.413	0.521	0.539	0.463	0.555	0.318	0.414	0.477	0.423	0.438	0.488
EKVX	0.392	0.385		0.373	0.42	0.425	0.452	0.384	0.431	0.574	0.239	0.251	0.221	0.247	0.241	0.41	0.321		0.36	0.34
NCI-H838	0.253	0.243	0.199	0.198	0.177	0.529	0.42	0.469	0.397	0.429	0.57	0.584	0.585	0.537	0.503	0.485	0.507	0.427	0.458	0.413
NCI-H1437	0.339	0.365	0.317	0.331	0.368	0.465	0.49	0.489	0.453	0.44	0.269	0.298	0.335	0.349	0.36	0.559	0.609	0.576	0.577	0.685
ChaGo-K-1	0.918	0.905	0.971	0.94	0.839	0.814	1.03	0.967		0.879	0.495	0.507	0.479	0.436	0.433	0.524	0.516	0.523	0.418	0.485
LK-2	0.52	0.814	0.605	0.561	0.541	0.52	0.482	0.591	0.53	0.473	0.511	0.475	0.306	0.374	0.244	0.306	0.375	0.276	0.328	0.286
NCI-H2023	0.332	0.325	0.357	0.289	0.36	0.263	0.238	0.222	0.177	0.21	0.377	0.392	0.405	0.338	0.342	0.258	0.216	0.221	0.195	0.232
PC-3 [JPC-3]	0.543	0.573	0.534	0.557	0.602	0.613	0.88	0.655	0.76	0.829	0.446	0.485	0.428	0.46	0.496	0.761	0.763	0.804	0.837	0.842
NCI-H1650	0.36	0.399	0.331	0.314	0.364	0.591	0.622	0.531	0.625	0.54	0.481	0.55	0.412	0.49	0.4	0.471	0.376	0.361	0.485	0.452
NCI-H2170	0.443	0.384	0.341	0.368	0.397	0.299	0.329	0.238	0.303	0.297	0.404	0.4	0.408	0.381	0.384	0.516	0.487	0.452	0.462	0.418
NCI-H1648	0.274	0.276		0.365	0.315											0.418	0.568		0.538	0.544
Calu-6						0.899	0.872	0.932	0.877	0.852										
SW 900	0.517	0.481	0.527	0.569	0.622						0.613	0.668	0.646	0.492	0.602	0.385	0.48	0.43	0.409	0.472
NCI-H1563						0.72	0.637	0.613	0.638	0.617	0.641	0.7	0.654	0.648	0.658					
IA-LM						0.361	0.463	0.342	0.389	0.579										
NCI-H522	0.956	1.04	0.906	0.886	0.923						0.688	0.646	0.66	0.621	0.655	0.672	0.673	0.635	0.597	0.574
CAL-12T	0.436	0.431	0.208	0.524	0.43		0.74	0.482		0.459	0.55	0.563	0.529	0.555	0.543					
NCI-H1703						0.377		0.26	0.215	0.223										
